The structures appear in SMILES notation.

One experiment concerns the target T1, human PERK (hPERK) (Homo sapiens, UniProt Q9NZJ5).
T1 construct: gene EIF2AK3
T1 sequence (Q9NZJ5 30-1116): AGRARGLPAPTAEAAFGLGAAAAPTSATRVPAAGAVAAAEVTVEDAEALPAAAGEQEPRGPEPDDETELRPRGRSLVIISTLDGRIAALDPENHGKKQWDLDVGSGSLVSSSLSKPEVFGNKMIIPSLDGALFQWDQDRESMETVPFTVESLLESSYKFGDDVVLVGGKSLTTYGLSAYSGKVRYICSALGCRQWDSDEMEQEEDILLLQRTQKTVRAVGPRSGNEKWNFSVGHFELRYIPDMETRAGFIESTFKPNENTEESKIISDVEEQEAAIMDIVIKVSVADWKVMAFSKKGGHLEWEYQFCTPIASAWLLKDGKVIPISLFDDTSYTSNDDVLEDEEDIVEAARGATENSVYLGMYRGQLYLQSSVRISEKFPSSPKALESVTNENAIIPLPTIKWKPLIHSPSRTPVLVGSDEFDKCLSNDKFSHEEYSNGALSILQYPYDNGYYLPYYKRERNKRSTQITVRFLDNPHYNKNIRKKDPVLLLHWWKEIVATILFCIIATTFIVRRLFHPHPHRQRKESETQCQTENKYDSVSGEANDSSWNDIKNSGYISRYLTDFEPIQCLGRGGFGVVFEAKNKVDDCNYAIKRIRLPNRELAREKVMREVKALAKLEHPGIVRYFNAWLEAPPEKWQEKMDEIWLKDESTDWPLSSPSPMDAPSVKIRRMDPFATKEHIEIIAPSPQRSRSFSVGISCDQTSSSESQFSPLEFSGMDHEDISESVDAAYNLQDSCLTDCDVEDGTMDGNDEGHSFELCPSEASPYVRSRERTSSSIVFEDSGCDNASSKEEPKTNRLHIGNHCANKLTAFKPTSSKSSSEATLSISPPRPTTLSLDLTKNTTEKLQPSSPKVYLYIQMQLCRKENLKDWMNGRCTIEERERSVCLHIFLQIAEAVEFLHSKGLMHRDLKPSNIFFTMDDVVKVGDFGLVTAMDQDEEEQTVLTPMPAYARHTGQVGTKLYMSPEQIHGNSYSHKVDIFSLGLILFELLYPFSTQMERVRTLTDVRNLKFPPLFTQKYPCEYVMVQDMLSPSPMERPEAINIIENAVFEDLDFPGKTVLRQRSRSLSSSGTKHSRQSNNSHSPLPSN
Kind of experiment: microscale thermophoresis (MST) with labeled PERK protein. The class given is binding. In general terms: Microscale thermophoresis detects binding through changes in fluorescence in a small temperature gradient.

In a further experiment the target is T2, mouse PERK (mPERK) (Mus musculus, UniProt Q9Z2B5).
T2 construct: gene Eif2ak3
T2 sequence (Q9Z2B5 29-1114): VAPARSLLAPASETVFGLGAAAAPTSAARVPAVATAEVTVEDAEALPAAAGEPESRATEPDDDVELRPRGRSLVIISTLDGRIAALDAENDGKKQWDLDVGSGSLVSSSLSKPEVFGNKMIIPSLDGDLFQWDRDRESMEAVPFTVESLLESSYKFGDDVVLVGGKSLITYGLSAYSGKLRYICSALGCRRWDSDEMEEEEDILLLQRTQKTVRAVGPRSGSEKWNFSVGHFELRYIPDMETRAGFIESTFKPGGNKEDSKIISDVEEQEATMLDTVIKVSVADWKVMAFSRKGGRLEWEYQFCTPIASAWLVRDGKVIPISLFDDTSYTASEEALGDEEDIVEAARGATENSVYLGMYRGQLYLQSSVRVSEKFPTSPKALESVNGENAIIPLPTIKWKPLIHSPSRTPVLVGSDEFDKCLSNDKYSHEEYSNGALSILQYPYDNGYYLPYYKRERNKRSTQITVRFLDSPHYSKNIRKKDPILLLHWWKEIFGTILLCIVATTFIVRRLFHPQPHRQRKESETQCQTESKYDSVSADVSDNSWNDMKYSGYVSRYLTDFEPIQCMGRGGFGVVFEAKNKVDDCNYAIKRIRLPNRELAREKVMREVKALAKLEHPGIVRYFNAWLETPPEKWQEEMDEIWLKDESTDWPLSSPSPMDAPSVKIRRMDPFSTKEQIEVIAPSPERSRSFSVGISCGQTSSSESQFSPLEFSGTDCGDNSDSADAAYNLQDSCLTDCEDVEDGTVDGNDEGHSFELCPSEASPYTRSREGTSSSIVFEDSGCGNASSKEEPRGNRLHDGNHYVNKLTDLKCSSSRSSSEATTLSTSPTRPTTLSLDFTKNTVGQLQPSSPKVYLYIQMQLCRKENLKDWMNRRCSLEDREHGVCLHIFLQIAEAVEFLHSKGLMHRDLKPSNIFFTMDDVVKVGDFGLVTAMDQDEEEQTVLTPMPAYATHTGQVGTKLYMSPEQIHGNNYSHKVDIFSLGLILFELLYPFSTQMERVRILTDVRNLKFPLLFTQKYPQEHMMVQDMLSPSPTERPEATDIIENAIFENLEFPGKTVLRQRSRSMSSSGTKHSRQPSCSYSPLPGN
The experiment is described as above. It is filed as binding.

On to `C[C@@H]1O[C@@H](O[C@@H]2[C@@H](O)[C@H](OCCc3ccc(O)c(O)c3)O[C@H](CO[C@@H]3O[C@H](CO)[C@@H](O)[C@H](O)[C@H]3O)[C@H]2OC(=O)/C=C/c2ccc(O)c(O)c2)[C@H](O)[C@H](O)[C@H]1O` [ECH, Echinacoside], for which the Kd was 635 ± 74 nM on human PERK (hPERK) and 851 ± 81 nM on mouse PERK (mPERK).

In general, Kd refers to the concentration at which binding is half-saturated. Lower therefore signals higher affinity.
